Tests used:
[1] = target: T1, Tryptase beta-1 (Homo sapiens, UniProt Q15661); assay: Binding affinity to human tryptase beta2
[2] = target: Trypsin (Homo sapiens, UniProt P07477+P07478+P35030); assay: Binding affinity to trypsin; format: protein assay
[3] = Binding affinity to elastase; design: species or system Homo sapiens
[4] = Cmax in iv or po dosed rat; format: ADME, organism-based; details: in vivo
[5] = Clearance in iv or po dosed rat; format: ADME, organism-based; details: in vivo
[6] = Volume of distribution in iv or po dosed rat; format: ADME, organism-based; details: in vivo, read-out: Vc
[7] = target: T2, Tryptase (Mus musculus, UniProt Q02844); assay: Binding affinity to mouse tryptase
T2 sequence (Q02844 whole entry): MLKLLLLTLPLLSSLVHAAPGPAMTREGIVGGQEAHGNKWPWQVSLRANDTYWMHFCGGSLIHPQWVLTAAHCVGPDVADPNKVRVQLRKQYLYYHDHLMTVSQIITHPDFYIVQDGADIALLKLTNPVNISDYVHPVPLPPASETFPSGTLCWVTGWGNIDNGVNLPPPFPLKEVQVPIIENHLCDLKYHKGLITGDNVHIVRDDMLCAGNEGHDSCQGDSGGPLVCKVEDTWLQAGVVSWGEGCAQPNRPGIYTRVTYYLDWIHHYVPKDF

[8] = target: T3, Tryptase (Rattus norvegicus, UniProt P27435); assay: Binding affinity to rat tryptase
T3 sequence (P27435 whole entry): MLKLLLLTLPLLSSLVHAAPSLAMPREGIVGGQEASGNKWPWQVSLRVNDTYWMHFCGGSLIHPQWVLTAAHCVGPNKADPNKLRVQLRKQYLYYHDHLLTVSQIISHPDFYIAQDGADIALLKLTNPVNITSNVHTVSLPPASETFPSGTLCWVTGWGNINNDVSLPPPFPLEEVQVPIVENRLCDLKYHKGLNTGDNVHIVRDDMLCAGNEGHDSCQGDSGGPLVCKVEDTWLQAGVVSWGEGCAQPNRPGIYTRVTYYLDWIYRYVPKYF

[9] = target: T1, Tryptase beta-1; assay: Binding affinity to recombinant cynomolgus monkey tryptase
[10] = target: Tryptase (Canis lupus familiaris, UniProt P15944); assay: Binding affinity to dog tryptase
[11] = Mean residence time in iv or po dosed rat; format: ADME, organism-based; details: in vivo, read-out: Vdss
[12] = AUC in iv or po dosed rat; format: ADME, organism-based; details: plasma
[13] = Oral absorption in iv or po dosed rat; format: ADME, organism-based; details: in vivo
[14] = Oral bioavailability in iv or po dosed rat; format: ADME, organism-based; details: in vivo
[15] = Bioavailability in ip dosed mouse; format: ADME, organism-based; details: in vivo

T1 sequence (Q15661 whole entry): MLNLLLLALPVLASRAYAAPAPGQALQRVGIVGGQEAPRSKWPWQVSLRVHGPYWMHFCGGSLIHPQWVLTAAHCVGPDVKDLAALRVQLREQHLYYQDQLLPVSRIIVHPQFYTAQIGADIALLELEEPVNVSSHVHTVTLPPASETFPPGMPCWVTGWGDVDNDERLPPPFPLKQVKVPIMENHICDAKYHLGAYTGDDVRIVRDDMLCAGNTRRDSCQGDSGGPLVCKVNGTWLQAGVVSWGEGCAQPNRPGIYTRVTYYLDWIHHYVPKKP
Tryptase (Canis lupus familiaris, UniProt P15944), sequence (P15944 whole entry): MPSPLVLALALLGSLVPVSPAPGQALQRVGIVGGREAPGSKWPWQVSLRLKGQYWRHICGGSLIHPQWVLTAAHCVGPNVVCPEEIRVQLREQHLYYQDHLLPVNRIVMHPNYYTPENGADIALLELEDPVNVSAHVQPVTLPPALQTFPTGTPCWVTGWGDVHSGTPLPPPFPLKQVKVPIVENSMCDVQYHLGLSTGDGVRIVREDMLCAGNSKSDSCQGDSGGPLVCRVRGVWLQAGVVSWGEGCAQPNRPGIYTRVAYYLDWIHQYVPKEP

Structure (SMILES)	Ki [1] [µM]	Ki app [2] [µM]	further results
NCCCC[C@H](NC(=O)OCc1ccccc1)C(=O)c1noc(Cc2ccc(OCCc3cccc(Cl)c3)cc2)n1	0.013	0.19	
COc1ccc(CCOc2ccc(Cc3nc(C(=O)[C@H](CCCCN)NC(=O)OCc4ccccc4)no3)cc2)cc1OC	0.024	0.011	
NCCCC[C@H](NC(=O)OCc1ccccc1)C(=O)c1noc(Cc2ccc(OCCC3CCCCC3)cc2)n1	1.1	1	
CCOC(=O)N[C@@H](CCCCN)C(=O)c1noc(Cc2ccc(OCCc3ccccc3)cc2)n1			Ki [3]: > 150 µM; Cmax [4]: 0.59 µM; clearance [5]: 5.58 L/h/kg; Vd [6]: 0.91 L/kg; Ki [7]: 0.0435 µM; Ki [8]: 0.0055 µM; Ki [9]: 0.0465 µM; Ki [10]: 0.38 µM; Vd [11]: 7 L/kg; AUC [12]: 183 nM·h; Fa [13]: 18%; bioavailability [14]: 8.4%; bioavailability [15]: 68%
COc1ccc(CCOc2ccc(Cc3nc(C(=O)[C@H](CCCCN)NC(=O)OCc4ccccc4)no3)cc2)cc1	0.019	0.034	
NCCCC[C@H](NC(=O)OCc1ccccc1)C(=O)c1noc(Cc2ccc(OCCc3ccc(Cl)c(Cl)c3)cc2)n1	0.01	0.28	
NCCCC[C@H](NC(=O)OCc1ccccc1)C(=O)c1noc(Cc2cccc(OCCCc3ccccc3)c2)n1	0.12	0.092	
NCCC[C@H](NC(=O)OCc1ccccc1)C(=O)c1noc(Cc2ccccc2)n1	2.7	0.068	
COc1cccc(CCOc2ccc(Cc3nc(C(=O)[C@H](CCCCN)NC(=O)OCc4ccccc4)no3)cc2)c1	0.041	0.059	
NCCCC[C@H](NC(=O)OCc1ccccc1)C(=O)c1noc(Cc2ccc(OCCc3ccc(Cl)cc3Cl)cc2)n1	0.096	0.41	
NCCCC[C@H](NC(=O)OCc1ccccc1)C(=O)c1noc(Cc2cccc(OCCc3ccccc3)c2)n1	0.36	0.082	

Further lines, with some results ahead:

Ki [1] [µM]	Ki app [2] [µM]	Structure (SMILES)	further results
0.025	0.041	NCCCC[C@H](NC(=O)OCc1ccccc1)C(=O)c1noc(Cc2ccc(OCCCc3ccccc3)cc2)n1	
0.18	0.024	NCCCC[C@H](NC(=O)OCc1ccccc1)C(=O)c1noc(Cc2ccc(OCc3ccccc3)cc2)n1	
0.078	0.095	NCCCC[C@H](NC(=O)OCc1ccccc1)C(=O)c1noc(Cc2ccc(OCCc3cccc4ccccc34)cc2)n1	
0.016	0.11	NCCCC[C@H](NC(=O)OCc1ccccc1)C(=O)c1noc(Cc2ccc(OCCc3ccc(F)cc3)cc2)n1	
0.014	0.27	NCCCC[C@H](NC(=O)OCc1ccccc1)C(=O)c1noc(Cc2ccc(OCCc3ccc(Cl)cc3)cc2)n1	
0.027	0.14	NCCCC[C@H](NC(=O)OCc1ccccc1)C(=O)c1noc(Cc2ccc(OCCc3ccc4ccccc4c3)cc2)n1	
	0.035	NCCCC[C@H](NC(=O)OCc1ccccc1)C(=O)c1noc(Cc2ccc(OCCc3ccccc3)cc2)n1	

Source: ChEMBL document CHEMBL1146026, “Novel, potent, selective, and orally bioavailable human betaII-tryptase inhibitors” (Bioorg Med Chem Lett, 2006)
